# System: acquired MAPKi-resistant sub-lines (n=9) isogenic to the human BRAF^V600MUT and NRAS^Q61MUT parental cell lines
# Test: Long-term clonogenic growth of acquired MAPKi-resistant sub-lines
# Type: cell-based
# Conditions: in combination with MAPKi, lower range of the concentrations tested
# Protocol: FIGS. 4A-4U. DNA-PKi and/or PARPi co-treatment prevents acquired MAPKi-resistance in human melanoma cell lines. FIGS. 4A to 4O: Long-term clonogenic growth of isogenic parental and acquired MAPKi-resistant BRAF^V600MUT (4A to 4H) or NRAS^Q61MUT (4I to 4O) human melanoma cell lines showing acquired-resistant colonies to BRAFi+MEKi (PLX4032 at 0.5 mM, AZD6244 at 0.5 mM in 4A and 4G; PLX4032 at 0.25 mM, AZD6244 at 0.25 mM in 4D; PLX4032 at 1 mM, AZD6244 at 1 mM in 4B, 4C, 4E, 4F and 4H) or MEKi (trametinib at 0.005 mM in I and 0.01 mM in 4J and 4N; trametinib at 0.1 mM in 4K, 4M and 4O) and their suppression by indicated co-treatments with DNA-PKi (NU7026) and/or PARPi (ABT888) at indicated concentrations. Top, representative cultures; bottom, quantifications over n=4 fields (mean±SD). Data representative of 2 to 4 independent repeats. […] Representative results of two independent experiments; quantification of n=4 fields (mean±SD). […] Left, representative cultures; right, quantifications over n=4 fields (mean±SD). […] Top, representative cultures; bottom, quantifications over n=4 fields (mean±SD). […]
row,SMILES,anti-clonogenic activity in acquired MAPKi-resistant sub-lines compared to isogenic parental lines
1,"C[C@]1(c2nc3c(C(N)=O)cccc3[nH]2)CCCN1 [ABT888, veliparib]",no or reduced anti-clonogenic activity
2,O=c1cc(N2CCOCC2)oc2c1ccc1ccccc12 [NU7026],no or reduced anti-clonogenic activity

# From patent US20260240842A1, “METHODS TO PREVENT THERAPY RESISTANCE IN MELANOMA VIA BLOCKING GENOMIC INSTABILITY” (THE REGENTS OF THE UNIVERSITY OF CALIFORNIA, priority 2022, published 2026)
